Source: ChEMBL document CHEMBL3627715, “Caffeoyl glucosides from Nandina domestica inhibit LPS-induced endothelial inflammatory responses” (Bioorg Med Chem Lett, 2015)

What was measured:
HUVEC [1] = assay: Inhibition of LPS-induced hyperpermeability in HUVEC cells assessed as permeability at 20 uM for 6 hrs pretreated with LPS for 4 hrs by evans blue dye flux based immunofluorescence analysis (reference value: 100%); type: functional, Homo sapiens; set-up: scale not given: the % may be the effect or the level left
HUVEC [2] = assay: Inhibition of LPS-induced neutrophil adhesion in HUVEC cells assessed as neutrophil adhesion to cell monolayer at 20 uM for 6 hrs pretreated with LPS for 4 hrs by fluorescence microplate reader assay (reference value: 86%); type: functional, Homo sapiens; set-up: scale not given: the % may be the effect or the level left
HUVEC [3] = assay: Inhibition of LPS-induced neutrophil migration in HUVEC cells for 6 hrs pretreated with LPS for 4 hrs; type: functional, cell-based; conditions: Homo sapiens
HUVEC [4] = assay: Inhibition of LPS-induced neutrophil migration in HUVEC cells assessed as migration index at 20 uM for 6 hrs pretreated with LPS for 4 hrs (reference value: 155); type: functional, Homo sapiens
HUVEC [5] = assay: Inhibition of LPS-induced hyperpermeability in HUVEC cells for 6 hrs pretreated with LPS for 4 hrs by evans blue dye flux based immunofluorescence analysis; type: functional, cell-based; conditions: Homo sapiens
HUVEC [6] = assay: Cytotoxicity against HUVEC cells assessed as permeability at 2.5 to 20 uM after 6 hrs by evans blue dye flux based immunofluorescence analysis; type: cell-based; conditions: human
HUVEC [7] = assay: Inhibition of LPS-induced neutrophil adhesion in HUVEC cells for 6 hrs pretreated with LPS for 4 hrs by fluorescence microplate reader assay; type: functional, cell-based; conditions: Homo sapiens
HUVEC [8] = assay: Cytotoxicity against HUVEC cells assessed as neutrophil adhesion at 2.5 to 20 uM after 6 hrs by fluorescence microplate reader assay; type: cell-based; conditions: human
HUVEC [9] = assay: Cytotoxicity against HUVEC cells assessed as neutrophil migration at 2.5 to 20 uM after 6 hrs; type: cell-based; conditions: human
[10] = Acid hydrolysis of compound assessed as retention time at 2 mg after 6 hrs by RP-HPLC method; type: physicochemical

For O=c1cc(-c2ccc(O)c(O)c2)oc2c([C@@H]3O[C@H](CO)[C@@H](O)[C@H](O)[C@H]3O)c(O)cc(O)c12 [ORIENTIN], the Activity (HUVEC [1]) was 71%, the Activity (HUVEC [2]) was 41% and the inhibition (HUVEC [3]) was “Dose-dependent effect”. The Activity_index (HUVEC [4]) was 73.
With O=C(/C=C/c1ccc(O)c(O)c1)OCc1ccc(O[C@@H]2O[C@H](CO)[C@@H](O)[C@H](O)[C@H]2O)cc1 the Activity (HUVEC [2]) was 73% and the Activity_index (HUVEC [4]) was 142.
For O=Cc1ccc(O[C@@H]2O[C@H](CO)[C@@H](OC(=O)/C=C/c3ccc(O)c(O)c3)[C@H](O)[C@H]2O)cc1, the inhibition (HUVEC [5]) was “Dose-dependent effect”, the Activity (HUVEC [1]) was 58% and the Activity (HUVEC [6]) was “Non-toxic”. The inhibition (HUVEC [7]) was “Dose-dependent effect”, the Activity (HUVEC [2]) was 33% and the Activity (HUVEC [8]) was “Non-toxic”. The inhibition (HUVEC [3]) was “Dose-dependent effect”, the Activity_index (HUVEC [4]) was 74 and the Activity (HUVEC [9]) was “Non-toxic”.
In the case of O=Cc1ccc(O[C@@H]2O[C@H](COC(=O)/C=C/c3ccc(O)c(O)c3)[C@@H](O)[C@H](O)[C@H]2O)cc1, the Retention_time [10] is reported as 28.1 min, the inhibition (HUVEC [5]) is reported as “Dose-dependent effect” and the Activity (HUVEC [1]) is reported as 73%. For the same molecule, the Activity (HUVEC [6]) was “Non-toxic”, the inhibition (HUVEC [7]) was “Dose-dependent effect” and the Activity (HUVEC [2]) was 30%. The Activity (HUVEC [8]) was “Non-toxic”, the inhibition (HUVEC [3]) was “Dose-dependent effect” and the Activity_index (HUVEC [4]) was 75. For the same molecule, the Activity (HUVEC [9]) was “Non-toxic”.
